# Tests used:
# corn = assay: Test Example 4: effect on crop by soil treatment (Table 19, symbol c); format: in vivo; conditions: amount of applied herbicide 320 g/ha
# Excerpt: (§1) [Test Example 4] Herbicidal Effect Test by Soil Treatment
# (§2) Sterilized diluvial soil was placed in a plastic box having a length of 21 cm, a width of 13 cm, and a depth of 7 cm. The seeds of each of southern crabgrass, green foxtail, barnyard grass, wild oat, blackgrass, Italian ryegrass, windgrass, velvetleaf, redroot pigweed, lambsquarters, chickweed, false cleavers, persian speedwell, corn, soybean, rice, wheat, beet, and rapeseed were sowed in a spot-like manner and covered with the soil having a thickness of about 1.5 cm. Subsequently, the emulsion agent of the compound of the present invention prepared according to Formulation Example 2 was diluted with water so as to achieve a predetermined herbicide amount, and the diluted emulsion agent was uniformly applied to the surface of the soil with a small-sized spray. The plastic box was placed in a greenhouse at 25° C. to 30° C. for growth of the plants. Three weeks after the herbicide application, the effect of the herbicide on each plant was evaluated according to the criteria of Test Example 1.
# redroot pigweed = assay: Test Example 4: herbicidal effect by soil treatment (Table 19, symbol N); format: in vivo, redroot pigweed (Amaranthus retroflexus); conditions: amount of applied herbicide 320 g/ha
# Summary of the method: (§3)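 Step 1: sow seeds in sterilized diluvial soil, cover ~1.5 cm. Step 2: spray diluted emulsion onto soil surface at predetermined rate. Step 3: greenhouse, 25–30° C, three weeks. Step 4: grade effect on each plant by earlier criteria.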
# windgrass = assay: Test Example 4: herbicidal effect by soil treatment (Table 19, symbol L); format: in vivo, windgrass (Apera spica-venti); conditions: amount of applied herbicide 320 g/ha
# Summary of the method: as §3
# velvetleaf = assay: Test Example 4: herbicidal effect by soil treatment (Table 19, symbol M); format: in vivo, velvetleaf (Abutilon theophrasti); conditions: amount of applied herbicide 320 g/ha
# Summary of the method: as §3
# lambsquarters = assay: Test Example 4: herbicidal effect by soil treatment (Table 19, symbol O); format: in vivo, lambsquarters (Chenopodium album); conditions: amount of applied herbicide 320 g/ha
# Summary of the method: as §3
# green foxtail = assay: Test Example 4: herbicidal effect by soil treatment (Table 19, symbol G); format: in vivo, green foxtail (Setaria viridis); conditions: amount of applied herbicide 320 g/ha
# Summary of the method: as §3
# soybean = assay: Test Example 4: effect on crop by soil treatment (Table 19, symbol d); format: in vivo; conditions: amount of applied herbicide 320 g/ha
# Excerpt: as §1, §2
# wild oat = assay: Test Example 4: herbicidal effect by soil treatment (Table 19, symbol I); format: in vivo, wild oat (Avena fatua); conditions: amount of applied herbicide 320 g/ha
# Summary of the method: as §3
# Italian ryegrass = assay: Test Example 4: herbicidal effect by soil treatment (Table 19, symbol K); format: in vivo, Italian ryegrass (Lolium multiflorum); conditions: amount of applied herbicide 320 g/ha
# Summary of the method: as §3
# rice flat sedge = assay: Test Example 3: herbicidal effect by foliage application, Wagner pot (Table 18, symbol E); format: in vivo, rice flat sedge (Cyperus iria); conditions: amount of applied herbicide 320 g/ha
# Summary of the method: (§4)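 Plants were sown in alluvial soil held under 0.1–0.5 cm standing water and grown 14 days in a greenhouse at 25–30 °C. An emulsifiable formulation, water-diluted to the set dose, was then sprayed onto the foliage, and effects were scored three weeks later using previously defined criteria.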
# barnyard grass [1] = assay: Test Example 4: herbicidal effect by soil treatment (Table 19, symbol H); format: in vivo, barnyard grass (Echinochloa crus-galli); conditions: amount of applied herbicide 320 g/ha
# Summary of the method: as §3
# beet = assay: Test Example 4: effect on crop by soil treatment (Table 19, symbol f); format: in vivo; conditions: amount of applied herbicide 320 g/ha
# Excerpt: as §1, §2
# rapeseed = assay: Test Example 4: effect on crop by soil treatment (Table 19, symbol g); format: in vivo; conditions: amount of applied herbicide 320 g/ha
# Excerpt: as §1, §2
# blackgrass = assay: Test Example 4: herbicidal effect by soil treatment (Table 19, symbol J); format: in vivo, blackgrass (Alopecurus myosuroides); conditions: amount of applied herbicide 320 g/ha
# Summary of the method: as §3
# southern crabgrass = assay: Test Example 4: herbicidal effect by soil treatment (Table 19, symbol F); format: in vivo, southern crabgrass (Digitaria ciliaris); conditions: amount of applied herbicide 320 g/ha
# Summary of the method: as §3
# Chinese sprangletop = assay: Test Example 3: herbicidal effect by foliage application, Wagner pot (Table 18, symbol D); format: in vivo, chinese sprangletop (Leptochloa chinensis); conditions: amount of applied herbicide 320 g/ha
# Summary of the method: as §4
# barnyard grass [2] = assay: Test Example 3: herbicidal effect by foliage application, Wagner pot (Table 18, symbol H); format: in vivo, barnyard grass (Echinochloa crus-galli); conditions: amount of applied herbicide 320 g/ha
# Summary of the method: as §4
# directly sowed rice = assay: Test Example 3: effect on crop by foliage application, Wagner pot (Table 18, symbol b); format: in vivo; conditions: amount of applied herbicide 320 g/ha
# Description: [Test Example 3] Herbicidal Effect Test by Foliage Application After alluvial soil was placed into 1/10000 are of Wagner pot, water was poured and mixed to form a submerged condition having a water depth of 0.1 cm to 0.5 cm. Seeds of barnyard grass, Chinese sprangletop, rice flat sedge, and rice were sowed and the pot was placed in a greenhouse at 25° C. to 30° C. for growth of the plants. After 14-day growth of the plants, the emulsion agent of the compound of the present invention prepared according to Formulation Example 2 was diluted with water so as to achieve a predetermined herbicide amount, and the diluted emulsion agent was uniformly applied to a foliage part with a small-sized spray. Three weeks after the herbicide application, the effect of the herbicide on each plant was evaluated according to the criteria of Test Example 1.
# wheat = assay: Test Example 4: effect on crop by soil treatment (Table 19, symbol e); format: in vivo; conditions: amount of applied herbicide 320 g/ha
# Excerpt: as §1, §2
melting point [°C],Structure (SMILES),"effect on crop, c: corn (corn)","herbicidal effect, N: redroot pigweed (redroot pigweed)","herbicidal effect, L: windgrass (windgrass)","herbicidal effect, M: velvetleaf (velvetleaf)","herbicidal effect, O: lambsquarters (lambsquarters)","herbicidal effect, G: green foxtail (green foxtail)","effect on crop, d: soybean (soybean)","herbicidal effect, I: wild oat (wild oat)","herbicidal effect, K: Italian ryegrass (Italian ryegrass)",herbicidal effect on E: rice flat sedge (rice flat sedge),"herbicidal effect, H: barnyard grass (barnyard grass [1])","effect on crop, f: beet (beet)","effect on crop, g: rapeseed (rapeseed)","herbicidal effect, J: blackgrass (blackgrass)","herbicidal effect, F: southern crabgrass (southern crabgrass)",herbicidal effect on D: Chinese sprangletop (Chinese sprangletop),herbicidal effect on H: barnyard grass (barnyard grass [2]),effect on crop b: directly sowed rice (directly sowed rice),"effect on crop, e: wheat (wheat)"
183 to 186,"COc1ccccc1-c1sc2ccc(SC(F)(F)F)cc2c1-c1c(O)c(C)nn(C)c1=O [Compound No. 2-378, 5-hydroxy-4-(2-(2-methoxyphenyl)-5-((trifluoromethyl)thio)benzo[b]thiophen-3-yl)-2,6-di methylpyridazin-3(2H)-one]",0 (Herbicidal rate of 5% or less (almost no effect)),4 (Herbicidal rate of 70% or more and less than 90%),0 (Herbicidal rate of 5% or less (almost no effect)),0 (Herbicidal rate of 5% or less (almost no effect)),2 (Herbicidal rate of 20% or more and less than 40%),0 (Herbicidal rate of 5% or less (almost no effect)),0 (Herbicidal rate of 5% or less (almost no effect)),0 (Herbicidal rate of 5% or less (almost no effect)),0 (Herbicidal rate of 5% or less (almost no effect)),3 (Herbicidal rate of 40% or more and less than 70%),0 (Herbicidal rate of 5% or less (almost no effect)),0 (Herbicidal rate of 5% or less (almost no effect)),0 (Herbicidal rate of 5% or less (almost no effect)),0 (Herbicidal rate of 5% or less (almost no effect)),0 (Herbicidal rate of 5% or less (almost no effect)),5 (Herbicidal rate of 90% or more (almost completely withered)),5 (Herbicidal rate of 90% or more (almost completely withered)),0 (Herbicidal rate of 5% or less (almost no effect)),0 (Herbicidal rate of 5% or less (almost no effect))
152 to 155,"COc1ccccc1-c1sc2ccc(SC(F)(F)F)cc2c1-c1c(OC)c(C)nn(C)c1=O [Compound No. 2-379, 5-methoxy-4-(2-(2-methoxyphenyl)-5-((trifluoromethyl)thio)benzo[b]thiophen-3-yl)-2,6-di methylpyridazin-3(2H)-one]",–,–,–,–,–,–,–,–,–,–,–,–,–,–,–,–,–,–,–
